In PMC12019328, “Discovery of an ApoE4-targeted small-molecule SirT1 enhancer for the treatment of Alzheimer’s disease” (Scientific Reports, 2025):

Assays:
[1] = test system: SirT1 promoter; experiment: ChIP analysis of SirT1 promoter occupancy in brain tissue of ApoE4-TR:5xFAD mice; assay type: in vivo; conditions: vs Veh
Method: 17-371) following manufacturer's instructions. Brain was frozen to -80C, then powdered on dry
ice and split for either RNA analysis or for the ChIP assay, approximately ~100mg powderized
tissue was fixed in formaldehyde. For cultured cells in vitro, cells were fixed in each well and
harvested by scraping. Samples were sonicated to break chromatin into 200-1000bp fragments
(according to previously optimized conditions), using a Epishear programmable sonicator (Active
Motif), and aliquots were subjected to immunoprecipitation with antibodies against either apoE4
(Novus), RNA Polymerase (supplied in the Ez-ChIP kit), or mouse IgG (isotype matched).
Immunoprecipitated chromatin was subjected to conditions that reversed the cross-links, and
DNA was purified. The immunoprecipitated DNA was measured for the level of immuno-captured
SirT1 gene promoter sequence using qPCR with PCR primers that bind flanking the SirT1 CLEAR
sequence. PCR produced an amplicon of 125bp with the CLEAR site near one end, the CLEAR
sequence is bold underlined in the following 125bp PCR amplicon:
PCR amplification Ct values for apoE4 and RNAP were normalized to the levels obtained for
IgG and further normalized to the level of input DNA. This level of immuno-captured DNA indicates
the level of apoE4 or RNAP occupancy of CLEAR site region of the SirT1 gene promoter.
Figure S7. SirT1 promoter binding by RNA polymerase and ApoE4. […]

[2] = test system: ApoE4-TR:5xFAD mice; experiment: Barnes maze testing in ApoE4-TR:5xFAD mice; assay type: in vivo; conditions: 20 mg/Kg BID oral, 56 days, vs vehicle
Method: (§1) The active (-) enantiomer, DDL-218, underwent efficacy testing in ApoE4-TR:5xFAD mice[27] that were 6-7.5 months old at the start of treatment. ApoE4-TR:5xFAD male and female mice received either 20 mg/Kg DDL-218 BID (~ 8- to10-hour interval; total daily dose of 40 mkd) on weekdays and a single 40 mg/Kg dose on weekends (n = 12) or vehicle-only (n = 11); 8 C57BL/6 mice received vehicle-only as behavioral controls. Dosing was by the oral route and by oral feeding using a pipette as previously described, not gavage, as it is safer for repeated oral dosing than gavage. The dose of 20 mg/kg BID (40 mkd) was selected based on findings from PK analysis and was the highest feasible in the formulation used for oral feeding (compound is first solubilized in water, then mixed strawberry syrup diluted in water, for a final vehicle that is 25% syrup and 75% water). The final concentration of DDL-218 was chosen to deliver 20 mg/Kg in a volume of 10–20 µL (adjusted to the weight of each mouse). […]
For the probe test of memory, 48 h after the last training, the escape hole is closed and the escape box removed. […] Analysis of latency over the course of training trials was performed using ANY-Maze Software (Wood Dale, IL) and probe data was calculated manually as the software excludes mice that […] the escape hole within 90 s; in manual scoring, they are assigned a 90 s latency.

[3] = Observable adverse effects in 56-day oral treatment of AD model mice; assay type: in vivo; conditions: 56-day oral treatment of ApoE4-expressing AD model mice
Method: (§2) The active (-) enantiomer, DDL-218, underwent efficacy testing in ApoE4-TR:5xFAD mice[27] that were 6-7.5 months old at the start of treatment. ApoE4-TR:5xFAD male and female mice received either 20 mg/Kg DDL-218 BID (~ 8- to10-hour interval; total daily dose of 40 mkd) on weekdays and a single 40 mg/Kg dose on weekends (n = 12) or vehicle-only (n = 11); 8 C57BL/6 mice received vehicle-only as behavioral controls. Dosing was by the oral route and by oral feeding using a pipette as previously described, not gavage, as it is safer for repeated oral dosing than gavage. The dose of 20 mg/kg BID (40 mkd) was selected based on findings from PK analysis and was the highest feasible in the formulation used for oral feeding (compound is first solubilized in water, then mixed strawberry syrup diluted in water, for a final vehicle that is 25% syrup and 75% water). The final concentration of DDL-218 was chosen to deliver 20 mg/Kg in a volume of 10–20 µL (adjusted to the weight of each mouse). Mice were treated for 56 days (8 weeks); in week 7, mice underwent Barnes maze testing[29] as described below.

[4] = test system: SirT1 protein; experiment: SirT1 protein levels in hippocampi of ApoE4-TR:5xFAD mice; assay type: in vivo; conditions: 56 days, vs vehicle, not statistically significant
Method: as §2
On Day 56, mice were euthanized 2 h after the a.m. dose by pentobarbital over-anesthesia and cardiac puncture for the collection of blood in EDTA tubes on ice for the isolation of plasma by centrifugation at 3,000 x g for 10 min at 4 °C. Mice were perfused with saline at 5 ml/min. […]

[5] = test system: NFYb mRNA in Kelly cells; experiment: NFYb mRNA in Kelly neuroblastoma cells; assay type: cell-based, human; conditions: 5 µM, 24 h, vs DMSO
Method: (§3) Human neuroblastoma ‘Kelly’ cells (genotype APOE3/APOE4) were plated in 96-well plates at 50K cells per well and were grown overnight in RPMI 1640 supplemented with 2 mM Glutamine, 10% FBS and 1% Pen-Strep. Cells were treated with 5 µM DDL-214, -218, or -219; or DMSO vehicle (n = 8 per compound). Twenty-four hours later, medium was removed, cells washed and lysed as described above for N2a-E4 cells.
(§4) Total RNA was isolated from cells or brain tissue (Qiagen RNEasy kit). Total RNA (0.5–1.0 µg) mRNA was then converted to cDNA (SuperScript™ III First-Strand Synthesis SuperMix kit; Thermo Fisher), and gene mRNA levels were measured using a gene-specific qRT-PCR Taqman assays (Thermo Fisher). Gene mRNA levels were normalized to GAPDH mRNA levels measured either in the same cDNA sample or in the same qPCR reaction using multiplexing of gene-of-interest/VIC and GAPDH/FAM, normalized by the delta-delta-Ct method.

[6] = test system: PRMT5 mRNA; experiment: Hippocampal PRMT5 mRNA in ApoE4-TR:5xFAD mice; assay type: in vivo; conditions: 20 mg/Kg BID, 56 days, vs vehicle
Method: as §1, with “water).” for “water). The final concentration of DDL-218 was chosen to deliver 20 mg/Kg in a volume of 10–20 µL (adjusted to the weight of each mouse).”
as §4

[7] = test system: PPP2r5e mRNA in Kelly cells; experiment: PPP2r5e mRNA in Kelly neuroblastoma cells; assay type: cell-based, human; conditions: 5 µM, 24 h, vs DMSO
Method: as §3, §4

CC(N)C(=O)OC(C)(C)Cc1ccncc1 (centres unmarked) [DDL-218]
ApoE4 binding to the SirT1 promoter [1]: lower, but the effect was not significant
RNAP binding to the SirT1 promoter [1]: significantly increased
latency to enter the escape hole, 48-hour post-training probe [2]: decrease in latency
observable adverse effects [3]: not associated with any observable adverse effects
increase of mean SirT1 protein levels in hippocampi [4]: ~ 20%
NFYb mRNA [5]: significantly increases NFYb mRNA
hippocampal PRMT5 mRNA [6]: significantly increased
PPP2r5e mRNA [7]: significantly increased
